The source made the active and inactive calls.
Legend:
[1] = molecular target: T1, Epstein-Barr nuclear antigen 1 (Epstein-Barr virus (strain B95-8) (HHV-4) (Human herpesvirus 4), UniProt P03211); test: inhibition of EBV nuclear antigen 1 DNA binding – biochemical, fluorescence polarization, 1536-well, dose response (AID 2381); parameters: species or system human gammaherpesvirus 4;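 note: fluorescence polarization of a Cy5 DNA probe bound by EBNA-1 protein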
T1 sequence (P03211 whole entry): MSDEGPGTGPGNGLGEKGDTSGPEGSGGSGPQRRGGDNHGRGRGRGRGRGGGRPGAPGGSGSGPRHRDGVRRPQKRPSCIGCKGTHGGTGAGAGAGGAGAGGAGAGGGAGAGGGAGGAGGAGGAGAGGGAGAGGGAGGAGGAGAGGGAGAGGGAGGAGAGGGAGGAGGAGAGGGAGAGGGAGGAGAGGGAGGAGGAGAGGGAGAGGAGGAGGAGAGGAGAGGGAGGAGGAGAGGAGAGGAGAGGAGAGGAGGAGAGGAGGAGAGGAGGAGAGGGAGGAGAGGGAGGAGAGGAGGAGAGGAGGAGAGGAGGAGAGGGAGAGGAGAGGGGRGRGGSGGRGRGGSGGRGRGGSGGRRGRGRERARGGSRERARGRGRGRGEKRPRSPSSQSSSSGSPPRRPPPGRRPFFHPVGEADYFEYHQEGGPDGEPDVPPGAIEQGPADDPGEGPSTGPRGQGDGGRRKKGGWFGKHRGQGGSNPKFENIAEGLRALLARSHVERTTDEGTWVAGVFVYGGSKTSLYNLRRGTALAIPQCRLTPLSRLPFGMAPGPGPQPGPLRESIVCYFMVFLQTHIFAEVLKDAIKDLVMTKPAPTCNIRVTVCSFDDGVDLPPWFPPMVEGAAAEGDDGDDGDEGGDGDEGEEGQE

[2] = molecular target: T2, Lytic switch protein BZLF1 (Epstein-Barr virus (strain B95-8) (HHV-4) (Human herpesvirus 4), UniProt P03206); test: inhibition of BZLF1 ZTA DNA binding – biochemical, fluorescence polarization, Epstein-Barr virus, 1536-well, counter-screen for EBNA-1 inhibitor project, dose response (AID 2377); parameters: species or system human gammaherpesvirus 4;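 note: fluorescence polarization of Cy5-labelled ZRE DNA probe bound by purified Zta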
T2 sequence (P03206 whole entry): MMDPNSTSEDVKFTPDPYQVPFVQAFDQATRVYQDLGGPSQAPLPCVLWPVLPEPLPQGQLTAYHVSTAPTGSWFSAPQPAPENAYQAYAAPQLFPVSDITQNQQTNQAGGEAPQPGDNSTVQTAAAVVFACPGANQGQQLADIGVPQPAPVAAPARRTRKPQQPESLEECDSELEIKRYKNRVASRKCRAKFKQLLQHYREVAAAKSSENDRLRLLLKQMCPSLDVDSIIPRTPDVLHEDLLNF

[3] = molecular target: T3, Acyl-homoserine lactone acylase PvdQ (Pseudomonas aeruginosa (strain LESB58), UniProt Q9I194); test: PvdQ acylase enzyme activity blockers – biochemical, fluorescence, plate reader and imaging, cherry-picks, dose response (AID 493231)
T3 sequence (Q9I194 whole entry): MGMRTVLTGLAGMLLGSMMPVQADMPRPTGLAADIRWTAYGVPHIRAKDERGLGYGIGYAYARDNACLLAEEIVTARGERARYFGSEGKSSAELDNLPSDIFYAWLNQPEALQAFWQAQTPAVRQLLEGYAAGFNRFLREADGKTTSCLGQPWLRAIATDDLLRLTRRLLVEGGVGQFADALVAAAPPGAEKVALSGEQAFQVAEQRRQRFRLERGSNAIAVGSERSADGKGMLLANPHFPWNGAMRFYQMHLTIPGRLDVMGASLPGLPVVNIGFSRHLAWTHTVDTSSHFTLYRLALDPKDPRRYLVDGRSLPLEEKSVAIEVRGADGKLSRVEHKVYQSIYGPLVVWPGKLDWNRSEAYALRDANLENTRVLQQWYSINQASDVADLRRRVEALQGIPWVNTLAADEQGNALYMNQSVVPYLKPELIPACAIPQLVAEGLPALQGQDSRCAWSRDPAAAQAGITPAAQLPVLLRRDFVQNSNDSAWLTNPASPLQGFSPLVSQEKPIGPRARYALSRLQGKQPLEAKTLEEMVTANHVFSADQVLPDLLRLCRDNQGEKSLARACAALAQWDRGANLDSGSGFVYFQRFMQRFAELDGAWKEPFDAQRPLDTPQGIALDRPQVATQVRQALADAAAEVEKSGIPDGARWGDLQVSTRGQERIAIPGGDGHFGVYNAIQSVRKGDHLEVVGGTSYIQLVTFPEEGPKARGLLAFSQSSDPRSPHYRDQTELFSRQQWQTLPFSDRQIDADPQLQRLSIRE

[4] = molecular target: G-protein coupled receptor 35 (Homo sapiens, UniProt Q9HC97); test: inhibition of zaprinast-stimulated GPR35 beta-arrestin translocation – imaging, U2OS, beta-arrestin-GFP, zaprinast agonist, primary screen (AID 2058); assay type: functional;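 note: antagonist potency meaning inhibition of agonist-induced arrestin redistribution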
Chain of G-protein coupled receptor 35 (Q9HC97 whole entry): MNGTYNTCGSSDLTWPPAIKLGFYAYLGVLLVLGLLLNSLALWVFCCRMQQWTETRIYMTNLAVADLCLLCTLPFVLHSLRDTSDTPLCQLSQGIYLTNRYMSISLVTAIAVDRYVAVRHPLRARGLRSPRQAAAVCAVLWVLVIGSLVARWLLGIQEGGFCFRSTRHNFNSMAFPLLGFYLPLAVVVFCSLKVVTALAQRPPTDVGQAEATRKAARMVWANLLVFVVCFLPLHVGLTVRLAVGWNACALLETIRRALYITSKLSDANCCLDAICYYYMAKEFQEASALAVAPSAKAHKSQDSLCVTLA

BJ [5] = test: BJ-TERT fibroblast viability loss – cell-based, RAS-independent, luminescence, dose response (AID 1933); assay type: functional; conditions: Homo sapiens
BJ [6] = test: cells; assay type: functional, cell-based; conditions: Homo sapiens
BJ [7] = test: BJ-TERT-LT-ST fibroblast viability loss – cell-based, RAS-independent, luminescence, dose response (AID 1935); assay type: functional; conditions: Homo sapiens;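 note: BJ fibroblasts immortalized with TERT plus LT and ST oncogenes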
[8] = DRD fibroblast viability loss – cell-based, non-viral oncogenic, luminescence, dose response (AID 1934); assay type: functional; conditions: Homo sapiens
[9] = molecular target: T4, Endoribonuclease toxin MazF (Escherichia coli K-12, UniProt P0AE70); test: activation of MazEF endoribonuclease cleavage – biochemical, fluorescence, single-stranded RNA substrate, uHTS hits, dose response (AID 588481); assay type: functional
T4 sequence (P0AE70 whole entry): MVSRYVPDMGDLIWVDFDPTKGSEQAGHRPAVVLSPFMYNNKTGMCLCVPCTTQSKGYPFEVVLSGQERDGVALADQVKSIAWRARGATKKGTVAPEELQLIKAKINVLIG

[10] = molecular target: T4, Endoribonuclease toxin MazF; test: substrate-only fluorescence increase artefacts – biochemical, single-stranded RNase substrate, counter-screen for MazEF activator project, dose response (AID 588502); assay type: functional
[11] = molecular target: T5, Short transient receptor potential channel 4 (Mus musculus, UniProt Q9QUQ5); test: block of DAMGO-driven TRPC4 calcium entry – cell-based, HEK293 TRPC4/mu-opioid, Fluo-4 calcium, dose response (AID 434942); assay type: functional;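 note: potency of inhibitors blocking the TRPC4 calcium response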
T5 sequence (Q9QUQ5 whole entry): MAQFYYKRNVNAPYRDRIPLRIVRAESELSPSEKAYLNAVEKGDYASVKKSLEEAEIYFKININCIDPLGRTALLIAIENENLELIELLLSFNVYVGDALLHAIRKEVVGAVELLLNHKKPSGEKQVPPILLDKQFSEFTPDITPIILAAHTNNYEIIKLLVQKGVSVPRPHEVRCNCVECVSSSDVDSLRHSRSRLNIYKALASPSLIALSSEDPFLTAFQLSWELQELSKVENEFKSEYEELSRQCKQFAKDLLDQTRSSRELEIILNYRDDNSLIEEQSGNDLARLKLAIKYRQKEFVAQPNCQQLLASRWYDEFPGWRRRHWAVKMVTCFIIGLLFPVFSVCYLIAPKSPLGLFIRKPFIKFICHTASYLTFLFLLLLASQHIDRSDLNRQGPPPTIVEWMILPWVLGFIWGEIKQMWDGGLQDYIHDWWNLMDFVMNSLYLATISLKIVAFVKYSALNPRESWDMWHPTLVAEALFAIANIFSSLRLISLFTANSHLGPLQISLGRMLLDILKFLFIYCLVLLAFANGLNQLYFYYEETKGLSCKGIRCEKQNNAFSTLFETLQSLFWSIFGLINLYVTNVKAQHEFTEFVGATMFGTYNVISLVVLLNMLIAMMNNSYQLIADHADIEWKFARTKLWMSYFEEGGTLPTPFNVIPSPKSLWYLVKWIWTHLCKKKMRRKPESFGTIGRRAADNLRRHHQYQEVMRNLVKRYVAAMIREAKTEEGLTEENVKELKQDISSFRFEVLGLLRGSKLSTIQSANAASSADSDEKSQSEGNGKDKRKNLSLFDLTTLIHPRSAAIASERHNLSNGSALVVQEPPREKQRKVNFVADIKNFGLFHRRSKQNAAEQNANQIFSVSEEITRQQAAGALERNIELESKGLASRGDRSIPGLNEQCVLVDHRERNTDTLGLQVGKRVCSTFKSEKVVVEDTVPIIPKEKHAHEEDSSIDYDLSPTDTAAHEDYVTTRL

[12] = molecular target: Luciferin 4-monooxygenase (Photinus pyralis, UniProt P08659); test: Counter Screen for Luciferase-based Assay Positives. [Related pubchem assays: 620, 618, 411 ]
Chain of Luciferin 4-monooxygenase (P08659 whole entry): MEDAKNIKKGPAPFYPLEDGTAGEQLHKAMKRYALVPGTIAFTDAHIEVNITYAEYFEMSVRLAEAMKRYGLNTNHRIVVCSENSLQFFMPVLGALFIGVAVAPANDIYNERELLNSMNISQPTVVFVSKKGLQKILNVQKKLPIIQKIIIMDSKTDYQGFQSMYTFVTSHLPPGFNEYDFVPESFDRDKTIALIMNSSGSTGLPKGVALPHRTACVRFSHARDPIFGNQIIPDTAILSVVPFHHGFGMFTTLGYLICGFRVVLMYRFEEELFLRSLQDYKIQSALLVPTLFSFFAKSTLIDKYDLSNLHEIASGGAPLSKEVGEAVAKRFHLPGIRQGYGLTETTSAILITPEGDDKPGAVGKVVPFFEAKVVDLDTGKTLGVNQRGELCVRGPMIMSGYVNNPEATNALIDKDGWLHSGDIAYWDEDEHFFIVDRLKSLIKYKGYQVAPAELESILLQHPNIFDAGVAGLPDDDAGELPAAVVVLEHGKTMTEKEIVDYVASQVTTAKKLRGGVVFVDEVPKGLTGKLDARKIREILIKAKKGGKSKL

HT-1080 = test: HT1080 cell viability loss – fluorescence readout (AID 620); assay type: functional, cell-based; conditions: Homo sapiens
[13] = toxicity toward HepG2 liver cells – cell-based, plate reader, cherry-pick, antagonist series, cytotoxicity control, dose response (AID 743416); assay type: functional
[14] = blockers of bursicon-stimulated LGR2 cAMP reporter – cell-based, HEK293, CRE-luciferase reporter, cherry pick, set 2, dose response (AID 743343); assay type: functional;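 note: transfected cells were stimulated with diluted bursicon conditioned medium after compound addition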
[15] = blockade of melanocortin 4 receptor signaling – cell-based, plate reader, cherry pick, counter-screen for LGR2 antagonist project, dose response (AID 743444); assay type: functional;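 note: transfected HEK 293 cells stimulated with alpha-MSH peptide; potency of inhibitors of the alpha-MSH evoked signal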
[16] = mitochondrial function rescue without frataxin homolog – Friedreich's ataxia, plus single-dose screen, dose response (AID 1465); assay type: functional;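 note: yeast depleted of Yfh1p frataxin homolog grown on glycerol needing respiration; WST-1 tetrazolium dye reduction as measure of cellular dehydrogenase metabolic activity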
[17] = molecular target: 26S proteasome non-ATPase regulatory subunit 14 (Homo sapiens, UniProt O00487); test: inhibition of proteasome subunit RPN11 – biochemical, fluorescence polarization, uHTS hits, confirmation (AID 602368); assay type: functional
Chain of 26S proteasome non-ATPase regulatory subunit 14 (O00487 whole entry): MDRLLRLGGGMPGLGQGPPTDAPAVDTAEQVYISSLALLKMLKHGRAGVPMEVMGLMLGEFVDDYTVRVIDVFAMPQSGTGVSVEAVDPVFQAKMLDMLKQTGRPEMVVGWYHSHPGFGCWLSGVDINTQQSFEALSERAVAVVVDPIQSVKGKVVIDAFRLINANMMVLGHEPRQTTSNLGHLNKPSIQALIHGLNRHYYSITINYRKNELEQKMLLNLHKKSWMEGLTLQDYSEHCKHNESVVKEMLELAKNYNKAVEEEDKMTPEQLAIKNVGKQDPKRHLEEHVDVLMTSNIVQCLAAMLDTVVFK

[18] = molecular target: 72 kDa type IV collagenase (Homo sapiens, UniProt P08253); test: Dose Response validation of uHTS RPN11 inhibitor hits using a MMP-2 Fluorescence assay.; assay type: functional
Chain of 72 kDa type IV collagenase (P08253 whole entry): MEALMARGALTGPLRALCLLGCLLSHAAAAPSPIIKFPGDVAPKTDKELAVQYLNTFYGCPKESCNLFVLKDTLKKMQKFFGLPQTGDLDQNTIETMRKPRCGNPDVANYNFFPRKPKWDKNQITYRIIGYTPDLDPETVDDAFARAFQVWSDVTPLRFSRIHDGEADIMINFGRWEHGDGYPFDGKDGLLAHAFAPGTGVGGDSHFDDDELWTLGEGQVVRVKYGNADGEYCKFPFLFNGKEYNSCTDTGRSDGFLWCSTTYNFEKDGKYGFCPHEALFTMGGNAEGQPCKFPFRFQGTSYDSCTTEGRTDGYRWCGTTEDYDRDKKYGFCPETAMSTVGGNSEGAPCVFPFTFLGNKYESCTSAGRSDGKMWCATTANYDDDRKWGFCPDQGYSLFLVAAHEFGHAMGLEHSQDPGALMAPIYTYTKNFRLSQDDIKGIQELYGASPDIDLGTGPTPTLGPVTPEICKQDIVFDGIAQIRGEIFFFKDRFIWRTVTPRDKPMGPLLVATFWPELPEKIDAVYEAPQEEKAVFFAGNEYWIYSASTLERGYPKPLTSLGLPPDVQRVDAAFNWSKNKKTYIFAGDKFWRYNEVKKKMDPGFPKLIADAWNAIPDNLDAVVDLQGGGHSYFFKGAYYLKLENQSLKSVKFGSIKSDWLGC

Prothrombin = Prothrombin (Bos taurus, UniProt P00735); test: thrombin protease inhibitors – biochemical, fluorescence polarization, uHTS hits, dose response (AID 602369); assay type: functional
[19] = molecular target: G-protein coupled receptor 55 (Homo sapiens, UniProt Q9Y2T6); test: selective activators of receptor GPR55 – imaging, U2OS cells, beta-arrestin-GFP redistribution, primary screen (AID 1961); assay type: functional
Chain of G-protein coupled receptor 55 (Q9Y2T6 whole entry): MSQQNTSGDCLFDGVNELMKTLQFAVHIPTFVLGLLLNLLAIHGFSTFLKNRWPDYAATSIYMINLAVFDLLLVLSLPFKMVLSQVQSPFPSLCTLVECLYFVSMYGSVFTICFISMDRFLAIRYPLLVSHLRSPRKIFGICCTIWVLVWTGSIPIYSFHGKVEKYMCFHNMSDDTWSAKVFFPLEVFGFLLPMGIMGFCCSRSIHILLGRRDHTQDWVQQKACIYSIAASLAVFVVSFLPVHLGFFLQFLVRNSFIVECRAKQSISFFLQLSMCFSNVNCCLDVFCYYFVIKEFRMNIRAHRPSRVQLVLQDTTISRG

N#Cc1c2ncn(CC(=O)c3ccc(Br)cc3)c(=O)c2c2n1CCC2
IC50 [1]: 13.1 µM (not active) | IC50 [2]: > 111 µM (not active)

CCOC(=O)c1ccc(N2Cc3ccccc3C2=N)cc1
AC50 [3]: 3.83 µM (active)

COCCN1C(=O)/C(=C/c2ccc(N3CCCC3)cc2)SC1=S
IC50 [4]: < 0.5 µM (active) | EC50 (BJ [5]): 20.9 µM (inconclusive) | EC50 (BJ [6]): > 150 µM (not active) | EC50 (BJ [7]): > 150 µM (not active) | EC50 [8]: 49.7 µM (active) | EC50 [9]: > 99 µM (inactive) | EC50 [10]: > 99 µM (inactive)

Cc1ccc(NC(=O)CSc2ccc(-c3ccc4c(c3)OCO4)nn2)cc1F
IC50 [1]: 4.44 µM (active) | IC50 [2]: > 111 µM (not active)

CCn1c(=O)n(CCOC)c(=O)c2c3c(sc21)CCCC3
EC50 [11]: 1.19 µM (active)

Oc1c2c(nc3cc(-c4ccc(F)cc4)nn13)CCCC2
EC50 [12]: 79.7 µM (active) | EC50 (HT-1080): 33.8 µM (active) | AC50 [13]: > 52 µM (inactive) | AC50 [14]: 7.51 µM (active) | AC50 [15]: 6.58 µM (active)

O=[N+]([O-])c1ccc(N2CCCCC2)s1
EC50 [16]: > 100 µM (active) | IC50 [17]: 36.1 µM (active) | IC50 [18]: > 100 µM (inactive) | IC50 (Prothrombin): 68 µM (active)

CCCN(CCC)Cc1c(C(=O)N/N=C/C(C)=C\c2ccccc2)nnn1-c1nonc1N
EC50 [19]: 0.525 µM (active)

O=C1C=C(c2cccc(Cl)c2)C[C@@H](c2ccc(F)cc2)C1
AC50 [3]: 9.81 µM (active)

CN1C(=O)C(=Cc2ccc(N3CCOCC3)o2)C(=O)N(C)C1=O
EC50 [16]: > 100 µM (active)

COC(=O)c1cc(-c2cccc(OC)c2)on1
AC50 [3]: > 100 µM (inactive)
